Measurements from ChEMBL document CHEMBL1221250, “Modification at the acidic domain of RXR agonists has little effect on permissive RXR-heterodimer activation” (Bioorg Med Chem Lett, 2010).
Calls of active or inactive are those of the source. The calls are words filed in the database; no cut-off is given here.

Assays:
[1] = target: T1, Retinoic acid receptor alpha (Homo sapiens) (UniProt P10276); assay: Transactivation of RARalpha in human COS7 cells at 10 uM by luciferase reporter gene assay; assay type: cell-based; conditions: COS-7
T1 sequence (whole entry): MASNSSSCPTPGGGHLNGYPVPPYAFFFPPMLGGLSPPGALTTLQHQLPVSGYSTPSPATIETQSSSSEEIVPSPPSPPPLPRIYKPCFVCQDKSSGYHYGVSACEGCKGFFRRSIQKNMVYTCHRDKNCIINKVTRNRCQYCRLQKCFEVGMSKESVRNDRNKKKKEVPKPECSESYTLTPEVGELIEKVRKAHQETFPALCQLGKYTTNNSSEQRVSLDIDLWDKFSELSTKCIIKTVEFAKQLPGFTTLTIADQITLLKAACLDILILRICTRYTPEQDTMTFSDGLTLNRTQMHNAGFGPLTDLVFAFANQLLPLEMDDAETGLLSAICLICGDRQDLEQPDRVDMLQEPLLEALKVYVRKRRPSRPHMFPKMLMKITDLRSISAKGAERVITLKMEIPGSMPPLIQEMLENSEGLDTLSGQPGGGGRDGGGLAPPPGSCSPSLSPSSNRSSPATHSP

[2] = target: T2, Retinoic acid receptor RXR-alpha (Homo sapiens) (UniProt P19793); assay: Transactivation of RXRalpha in human COS7 cells at 10 uM by luciferase reporter gene assay; assay type: cell-based; conditions: COS-7
T2 sequence (whole entry): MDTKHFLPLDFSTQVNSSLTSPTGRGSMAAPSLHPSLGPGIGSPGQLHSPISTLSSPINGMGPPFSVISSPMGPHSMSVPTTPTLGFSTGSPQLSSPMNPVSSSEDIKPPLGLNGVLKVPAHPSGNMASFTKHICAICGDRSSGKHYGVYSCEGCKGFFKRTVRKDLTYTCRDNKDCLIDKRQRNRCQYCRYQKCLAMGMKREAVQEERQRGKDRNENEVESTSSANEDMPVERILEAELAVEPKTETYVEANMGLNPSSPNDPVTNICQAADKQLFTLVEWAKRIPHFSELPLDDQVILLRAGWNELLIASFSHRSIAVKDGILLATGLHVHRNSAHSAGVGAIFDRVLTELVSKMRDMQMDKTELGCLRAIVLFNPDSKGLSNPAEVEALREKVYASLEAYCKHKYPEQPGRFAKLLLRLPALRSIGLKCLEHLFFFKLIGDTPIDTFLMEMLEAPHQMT

[3] = target: T3, Retinoic acid receptor RXR-alpha (Homo sapiens, UniProt P19793); assay: Agonist activity at RXRalpha by luciferase reporter gene assay; assay type: functional
T3 sequence (P19793 whole entry): T2 sequence (whole entry)

[4] = target: T4, Peroxisome proliferator-activated receptor gamma (Homo sapiens) (UniProt P37231); assay: Transactivation of PPARgamma
T4 sequence (whole entry): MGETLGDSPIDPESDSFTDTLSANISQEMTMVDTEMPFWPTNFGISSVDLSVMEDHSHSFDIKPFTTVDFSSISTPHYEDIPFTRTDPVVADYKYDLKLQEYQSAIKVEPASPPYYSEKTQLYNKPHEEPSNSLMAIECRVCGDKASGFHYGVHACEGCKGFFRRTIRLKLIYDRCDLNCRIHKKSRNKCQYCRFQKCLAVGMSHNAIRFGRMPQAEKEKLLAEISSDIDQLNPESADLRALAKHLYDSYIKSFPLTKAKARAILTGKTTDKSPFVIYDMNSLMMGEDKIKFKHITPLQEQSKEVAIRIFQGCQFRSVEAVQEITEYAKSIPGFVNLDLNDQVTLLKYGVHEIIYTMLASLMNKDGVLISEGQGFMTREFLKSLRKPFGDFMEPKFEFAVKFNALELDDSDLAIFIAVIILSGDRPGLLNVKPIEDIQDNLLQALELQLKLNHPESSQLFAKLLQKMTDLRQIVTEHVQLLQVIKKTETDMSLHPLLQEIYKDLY

[5] = target: RXR alpha/PPAR gamma (Homo sapiens) (UniProt P37231+P19793); assay: Transactivation of PPARgamma/RXRalpha heterodimer; assay type: protein-complex assay
[6] = target: T5, Oxysterols receptor LXR-alpha (Homo sapiens) (UniProt Q13133); assay: Transactivation of LXRalpha
T5 sequence (whole entry): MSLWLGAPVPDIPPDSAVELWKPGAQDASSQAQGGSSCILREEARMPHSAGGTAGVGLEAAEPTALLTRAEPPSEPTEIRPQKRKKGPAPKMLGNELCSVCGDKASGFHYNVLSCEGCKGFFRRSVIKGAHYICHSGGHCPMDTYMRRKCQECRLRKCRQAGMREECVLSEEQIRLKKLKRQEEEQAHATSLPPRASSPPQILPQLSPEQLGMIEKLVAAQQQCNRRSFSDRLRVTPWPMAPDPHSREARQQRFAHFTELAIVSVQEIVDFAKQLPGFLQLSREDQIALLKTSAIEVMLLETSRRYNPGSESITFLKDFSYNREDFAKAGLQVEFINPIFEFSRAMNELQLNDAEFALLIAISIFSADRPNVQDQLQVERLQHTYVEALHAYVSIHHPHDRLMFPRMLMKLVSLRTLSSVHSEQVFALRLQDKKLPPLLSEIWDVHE

[7] = target: Retinoic acid receptor RXR-alpha/oxysterols receptor LXR-alpha (Homo sapiens) (UniProt P19793+Q13133); assay: Transactivation of LXRalpha/RXRalpha; assay type: protein-complex assay

Activity [1] | Activity [2] | EC50 [3] [nM] | Activity [4] | Activity [5] [%] | Activity [6] | Activity [7] [%] | SMILES
inactive | inactive |  |  |  |  |  | CCN(c1ccc2c(c1)C(C)(C)CCC2(C)C)c1ccc(P(=O)(O)O)cn1
inactive |  | 5.28 | inactive | 60 | inactive | 60 | CCN(c1ccc2c(c1)C(C)(C)CCC2(C)C)c1ccc(C(=O)O)cn1
inactive |  |  | inactive | 20 | inactive | 50 | CCN(c1ccc2c(c1)C(C)(C)CCC2(C)C)c1ccc(C(=O)NO)cn1
inactive |  | 205 | inactive | 40 | inactive | 60 | CCN(c1ccc2c(c1)C(C)(C)CCC2(C)C)c1ccc(-c2nnn[nH]2)cn1
